Results from publication PMC12797721 (Cell Communication and Signaling : CCS, 2025).

Key:
[1] = target: C18ORF32 (Homo sapiens, UniProt Q8TCD1); assay: isothermal titration calorimetry; type: binding
[2] = target: C18ORF32 (Homo sapiens, UniProt Q8TCD1, F19A/Y16A/Y23A/Y25A); assay: isothermal titration calorimetry; type: binding
Sequence of C18ORF32 (Homo sapiens, UniProt Q8TCD1, F19A/Y16A/Y23A/Y25A) (Q8TCD1 whole entry Y16A/F19A/Y23A/Y25A): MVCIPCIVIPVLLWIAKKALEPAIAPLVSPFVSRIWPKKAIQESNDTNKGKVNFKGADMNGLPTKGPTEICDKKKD

Sequence of C18ORF32 (Homo sapiens, UniProt Q8TCD1) (Q8TCD1 whole entry): as the sequence (Q8TCD1 whole entry Y16A/F19A/Y23A/Y25A) above, with A16Y, A19F, A23Y, A25Y counted along it

Kd [1]: 0.0678 µM | Kd [2]: 557 µM
Compound: C[N+](C)(C)CCO [choline]
